Test results reported in patent US20260055081A1, “Metal Chelator Compounds, Coordination Complexes, and Methods of Preparation and Use Thereof” (University of Puerto Rico, priority 2022, published 2026).

Columns and labels:
Colon cancer cell lines = test: NCI 60 five-dose screen, colon panel; format: cell-based, human; details: 48 h
Procedure: (§1) National Cancer Institute Cancer Cell Line (NCI 60) Screen of DefNEtTrp. Details of the methodology for NCI 60 cell line screening are described at http://dtp.nci.nih.gov/branches/btb/ivclsp.html. The cells, grown in supplemented RPMI-1640 medium, are seeded in 96 well plates at an appropriate density and incubated for 24 h. The test compounds are dissolved in DMSO and incubated with cells at a single dose of 10.0 μM for 48 h. The assay is terminated by addition of cold trichloroacetic acid, and the cells are fixed and stained with sulforhodamine B. Bound stain is solubilized, and the absorbance is read on an automated plate reader. […] Using the seven absorbance measurements [time zero, […], control growth, (C), and test growth in the presence of drug at the five concentration levels (Tf)], the percentage growth was calculated at each of the drug concentrations levels as: [(Tf−Ti)/(C−Ti)]×100 for concentrations for which Tf≥Ti and [(Tf−Ti)/Ti]×100 for concentrations for which Tf<Ti. Three-dose response parameters (GI50, TGI, and LC50) were calculated for each of the experimental agents in five dose assay. […] The total growth inhibition (TGI) was calculated from Tf=Ti, which was the drug concentration resulting in total growth inhibition and signified the cytostatic effect. […]

CNS cancer cell lines = test: NCI 60 five-dose screen, CNS panel; format: cell-based, human; details: 48 h
Procedure: as §1

[1] = system: Jurkat Leukemia cell line; test: Jurkat cell viability (MTT assay); format: cell-based; details: 72 h
Procedure: Jurkat cell culturing and cell viability studies. Jurkat cells are nonadherent cells, and they were cultured in an RPMI-1640 media (supplemented with 10% FBS (v/v) and 1% antibiotic solution (v/v) of penicillin/streptomycin) in non-tissue-culture treated 25 mL flasks according to the known protocol provided by the supplier ATCC. The cell passaging was done at 70% confluency by taking 3 mL of cells and diluting to 25 mL of fresh media. The cells were incubated at 37° C. in 5% CO2 atmosphere.
Jurkat cytotoxicity of DefNEtTrp (6), Def (5), NEtTrp (4), Trp, and 1:1 combinations of 5 with 4 and 5 with Trp was determined by the colorimetric 3-(4,5-dimethylthiazol-2-yl)-2,5-diphenyltetrazolium bromide (MTT) assay. Incubation conditions were the same in all the steps. Cells in 80-95% confluence (grown in standard circular tissue culture dishes, BD Falcon) were separately seeded into 96-well plates using phenol red free RPMI-1640 media (containing 10% FBS and 1% streptomycin/penicillin) in a volume of 50 μL at a concentration of 5.0×10^5 cells/mL. Following this procedure, the Jurkat cells were treated immediately. Stock solution of the compounds were first prepared in DMF at 5 mM and stored at 4° C. for up to 30 days. The stock solution was diluted to specific concentrations using 1×PBS (0.2-20 μM) while DMF was maintained at 1% (v/v). 50 μL of diluted solutions were added in all cell containing wells with at least six replicates per concentration (n=6). The final percentage (v/v) of DMF was 0.5%. The cells were also co-treated with 5 with 4 and 5 with Trp in a 1:1 mole equivalent ratio over the same concentration range but as a combined concentration of both compounds. Control wells in the plates consisted of one lane of cells treated with media alone including 0.5% DMF (v/v) as the measure of 100% viable cell growth in the media. Another control lane consisted of no cells with media including 0.5% DMF (v/v) as a measure of the background with no viable cells. The plates were incubated for 72 h. At 4 h before completion of the incubation time, 25 μL of MTT solution (sterile filtered 5 mg/mL solution, dissolved in 1×PBS buffer) was added to each well. During addition of the MTT solution, the plates were protected from light. After completion a 50 μL portion of 4% (w/v) SDS solution (sterile filtered, dissolved in Tris buffer 1M, pH=10) was added to each well and incubated to solubilize formazan crystals after MTT cell labeling. The absorbance of each well was measured at 570 nm (absorbance of the formazan product at pH >10.0) and 800 nm (as a background correction) using a Tecan plate reader. The absorbance of all wells was compared to the absorbance of the untreated cells with the MTT set as the 100% viable cell standard and the absorbance of the no cell control set as the 0% viable cell standard. Nonlinear regression in GraphPad Prism 8 was utilized to fit the growth curve over the various drug concentrations to determine the half-maximal inhibitory concentration (IC50). All cell viability experiments, including non-Jurkat cells, were repeated at least once for biological duplicates. To confirm cell death at the higher concentration dosages of the compounds and combinations, dead cells were blue stained with trypan blue and visually inspected under the microscope.

[2] = cell lines in which TGI was observed
[3] = Homo sapiens, read-out: GI50 (calculated average)

In the case of `Nc1cccnc1/C=N/NC(=S)NCCNC(=O)c1ccc(-n2nc(-c3ccccc3O)nc2-c2ccccc2O)cc1` [DefNEtTrp, deferasirox nitrogen ethyl triapine], the “TGI (calculated average)” value (Colon cancer cell lines; [2]) is reported as 12.22 µM, the GI50 (Colon cancer cell lines; [3]) is reported as 0.87 µM and the “TGI (calculated average)” value (CNS cancer cell lines; [2]) is reported as 12.43 µM. The GI50 (CNS cancer cell lines; [3]) was 0.5 µM, the IC50 ([1]; Homo sapiens, Jurkat cell line, MTT) was 0.77 ± 0.06 µM and the “cytotoxic effect compared with Def, NEtTrp and Trp in single drug and combination drug treatments” value ([1]; Jurkat) was “superior cytotoxic effect”.
